Measured values: patent publication US20220002293A1, “8-CYCLOPENTYL-7-OXO-2-(4-PIPERAZIN-1-YL-PHENYLAMINO)-7, 8-DIHYDRO-PYRIDO [2,3-D]PYRIMIDINE-6-CARBONITRILE AND USES THEREOF IN TREATING PROLIFERATIVE DISORDERS” (ONCONOVA THERAPEUTICS, INC., priority 2018, published 2022)
Where two headings read alike, the source gives them in different places.

What was measured:
ARK5/NUAK1 = target: T1, ARK5/NUAK1 (Homo sapiens, UniProt O60285); assay: Kinase inhibition, ARK5/NUAK1; type: biochemical; conditions: 10 μM ATP; values <1 nM estimated from best curve fitting; read-out: Compound IC50 (M), ARK5/NUAK1
T1 sequence (O60285 1-661): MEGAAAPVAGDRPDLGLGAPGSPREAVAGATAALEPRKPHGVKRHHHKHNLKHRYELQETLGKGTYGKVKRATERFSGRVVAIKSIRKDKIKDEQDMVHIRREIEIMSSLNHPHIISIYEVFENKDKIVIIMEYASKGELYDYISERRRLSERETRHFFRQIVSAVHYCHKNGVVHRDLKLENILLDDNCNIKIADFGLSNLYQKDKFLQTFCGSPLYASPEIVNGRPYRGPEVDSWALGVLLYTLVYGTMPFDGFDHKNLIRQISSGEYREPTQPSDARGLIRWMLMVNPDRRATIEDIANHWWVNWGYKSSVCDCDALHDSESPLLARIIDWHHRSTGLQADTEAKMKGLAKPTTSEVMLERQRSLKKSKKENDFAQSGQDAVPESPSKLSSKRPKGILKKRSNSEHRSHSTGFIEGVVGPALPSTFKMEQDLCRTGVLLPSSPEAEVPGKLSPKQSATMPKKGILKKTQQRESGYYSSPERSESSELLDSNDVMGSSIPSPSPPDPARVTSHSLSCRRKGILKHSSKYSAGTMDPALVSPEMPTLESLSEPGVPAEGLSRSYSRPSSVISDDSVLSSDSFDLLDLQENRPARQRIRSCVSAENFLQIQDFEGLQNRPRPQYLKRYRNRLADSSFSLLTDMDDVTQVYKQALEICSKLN
Procedure: (§1) The compounds in Table 1 were tested for the ability to inhibit the kinase activity of the listed protein kinases.

FLT4/VEGFR3 = FLT4/VEGFR3 (Homo sapiens, UniProt P35916); assay: Kinase inhibition, FLT4/VEGFR3; type: biochemical; conditions: 10 μM ATP; read-out: Compound IC50 (M), FLT4/VEGFR3
Chain of FLT4/VEGFR3 (P35916 25-1363): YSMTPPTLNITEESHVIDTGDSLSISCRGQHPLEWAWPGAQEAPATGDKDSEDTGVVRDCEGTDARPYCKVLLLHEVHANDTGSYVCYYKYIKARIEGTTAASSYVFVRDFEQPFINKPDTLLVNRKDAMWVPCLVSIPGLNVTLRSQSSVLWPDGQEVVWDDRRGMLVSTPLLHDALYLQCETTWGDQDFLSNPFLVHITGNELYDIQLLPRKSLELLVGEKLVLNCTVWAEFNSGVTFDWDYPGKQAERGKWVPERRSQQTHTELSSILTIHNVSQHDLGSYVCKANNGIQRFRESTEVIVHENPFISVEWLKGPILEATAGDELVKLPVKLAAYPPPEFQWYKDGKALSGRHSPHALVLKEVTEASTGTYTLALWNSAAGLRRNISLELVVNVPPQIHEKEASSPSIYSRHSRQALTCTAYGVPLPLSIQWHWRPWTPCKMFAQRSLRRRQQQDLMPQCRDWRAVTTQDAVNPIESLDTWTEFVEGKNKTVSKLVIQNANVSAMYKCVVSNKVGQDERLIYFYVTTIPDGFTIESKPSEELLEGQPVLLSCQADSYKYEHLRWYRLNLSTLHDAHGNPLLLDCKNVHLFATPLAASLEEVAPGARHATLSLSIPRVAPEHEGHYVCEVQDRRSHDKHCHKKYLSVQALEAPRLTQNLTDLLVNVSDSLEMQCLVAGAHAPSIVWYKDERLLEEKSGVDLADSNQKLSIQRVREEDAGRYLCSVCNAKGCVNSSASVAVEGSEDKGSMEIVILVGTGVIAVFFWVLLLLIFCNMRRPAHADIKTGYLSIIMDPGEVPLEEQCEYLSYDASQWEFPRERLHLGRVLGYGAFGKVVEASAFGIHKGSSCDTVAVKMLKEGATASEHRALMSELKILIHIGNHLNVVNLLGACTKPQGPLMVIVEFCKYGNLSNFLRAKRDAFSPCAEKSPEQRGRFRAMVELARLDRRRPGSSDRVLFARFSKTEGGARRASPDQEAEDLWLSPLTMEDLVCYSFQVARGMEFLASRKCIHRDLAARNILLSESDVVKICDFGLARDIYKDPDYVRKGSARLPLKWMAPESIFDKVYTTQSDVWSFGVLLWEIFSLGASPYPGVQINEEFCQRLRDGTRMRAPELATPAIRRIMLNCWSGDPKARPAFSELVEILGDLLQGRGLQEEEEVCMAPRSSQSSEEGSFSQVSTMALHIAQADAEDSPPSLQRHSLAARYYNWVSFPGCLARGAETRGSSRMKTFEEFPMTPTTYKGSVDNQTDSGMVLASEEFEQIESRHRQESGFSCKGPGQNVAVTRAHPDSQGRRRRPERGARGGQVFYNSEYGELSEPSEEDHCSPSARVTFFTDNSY
Procedure: The compounds in Table 1 were tested for the ability to inhibit the kinase activity of the listed protein kinases. […]

[1] = test system: K-562 (human chronic myelogenous leukemia); assay: Cytotoxicity assay (CellTiter-Glo), K-562; type: cell-based; conditions: for IC50: CellTiter-Glo, read-out: Absolute IC50
Text: (§2) Determination of the Half Maximal Inhibition Concentration IC50: • 1.

[2] = test system: GRANTA-519 (human B Cell lymphoma); assay: Cytotoxicity assay (CellTiter-Glo), GRANTA-519; conditions: for IC50: read-out: Absolute IC50
Text: (§3) The homogeneous assay procedure involves adding a single reagent (CellTiter-Glo® Reagent) directly to cells cultured in serum-supplemented medium. The homogeneous “add-mix-measure” format results in cell lysis and generation of a luminescent signal proportional to the amount of ATP present. The amount of ATP is directly proportional to the number of cells present in culture. The assay generates a luminescent signal, produced by the luciferase reaction.
(§4) Determination of the Half Maximal Inhibition Concentration IC50: • 1. Harvest cells during the logarithmic growth period and count cell number using Count-star. • 2. […] Add 90 μL cell suspensions to two 96-well plates (plates A and B) with the final cell density of 4×10^3 cells/well. (cell concentration is adjusted according to the data base or density optimization assay.)
(§5) Next day: For the Plates of T0 Reading: • 1) Add 10 μL culture medium to each well of plate A for T0 reading. • 2) Equilibrate the plate and its content at RT for approximately 30 min. • 3) Add 50 μL CellTiter-Glo (CTG) reagent to each well. • 4) Mix content for 5 min on an orbital shaker to induce cell lysis. • 5) Allow the plate to incubate at RT for 20 min to stabilize luminescent signal. Note: Uneven luminescent signal within standard plates can be caused by temperature gradients, uneven seeding of cells or edge effects in multiwell plates. • 6) Record luminescence (T0) using EnVision Multi Label Reader.
(§6) Note: Uneven luminescent signal within standard plates can be caused by temperature gradients, uneven seeding of cells or edge effects in multiwall plates. • 9) Record luminescence.
(§7) In order to calculate absolute IC50 (EC50), a dose-response curve was fitted using nonlinear regression model with a sigmoidal dose response. The formula for calculating surviving rate is shown below and the absolute IC50 (EC50) was calculated according to the dose-response curve generated by GraphPad Prism 5.0.
(§8) The surviving rate (%)=(LumTest article−LumMedium control)/(LumNon-treated−LumMedium control)×100%.

[3] = test system: HeLa (human cervical cancer); assay: Cytotoxicity assay (CellTiter-Glo), HeLa; type: cell-based
Text: as §2

[4] = test system: DU 145 (human prostate cancer); assay: Cytotoxicity assay (CellTiter-Glo), DU 145; type: cell-based; conditions: for IC50: CellTiter-Glo, read-out: Absolute IC50
Text: as §2

PDGFRb = PDGFRb (Homo sapiens, UniProt P09619); assay: Kinase inhibition, PDGFRb; type: biochemical; conditions: 10 μM ATP; read-out: Compound IC50 (M), PDGFRb
Procedure: as §1

CDK4/cyclin D1 = CDK4/cyclin D1 (Homo sapiens, UniProt P11802); assay: Kinase inhibition, CDK4/cyclin D1; type: biochemical; conditions: 10 μM ATP; read-out: Compound IC50 (M), CDK4/cyclin D1
Procedure: as §1

CDK4/cyclin D3 = CDK4/cyclin D3 (Homo sapiens, UniProt P11802); assay: Kinase inhibition, CDK4/cyclin D3; type: biochemical; conditions: 10 μM ATP; read-out: Compound IC50 (M), CDK4/cyclin D3
Procedure: as §1

CDK9/cyclin K = CDK9/cyclin K (Homo sapiens, UniProt P50750); assay: Kinase inhibition, CDK9/cyclin K; type: biochemical; conditions: 10 μM ATP; read-out: Compound IC50 (M), CDK9/cyclin K
Procedure: as §1

RET = RET (Homo sapiens, UniProt P07949); assay: Kinase inhibition, RET; type: biochemical; conditions: 10 μM ATP; read-out: Compound IC50 (M), RET
Chain of RET (P07949 29-1114): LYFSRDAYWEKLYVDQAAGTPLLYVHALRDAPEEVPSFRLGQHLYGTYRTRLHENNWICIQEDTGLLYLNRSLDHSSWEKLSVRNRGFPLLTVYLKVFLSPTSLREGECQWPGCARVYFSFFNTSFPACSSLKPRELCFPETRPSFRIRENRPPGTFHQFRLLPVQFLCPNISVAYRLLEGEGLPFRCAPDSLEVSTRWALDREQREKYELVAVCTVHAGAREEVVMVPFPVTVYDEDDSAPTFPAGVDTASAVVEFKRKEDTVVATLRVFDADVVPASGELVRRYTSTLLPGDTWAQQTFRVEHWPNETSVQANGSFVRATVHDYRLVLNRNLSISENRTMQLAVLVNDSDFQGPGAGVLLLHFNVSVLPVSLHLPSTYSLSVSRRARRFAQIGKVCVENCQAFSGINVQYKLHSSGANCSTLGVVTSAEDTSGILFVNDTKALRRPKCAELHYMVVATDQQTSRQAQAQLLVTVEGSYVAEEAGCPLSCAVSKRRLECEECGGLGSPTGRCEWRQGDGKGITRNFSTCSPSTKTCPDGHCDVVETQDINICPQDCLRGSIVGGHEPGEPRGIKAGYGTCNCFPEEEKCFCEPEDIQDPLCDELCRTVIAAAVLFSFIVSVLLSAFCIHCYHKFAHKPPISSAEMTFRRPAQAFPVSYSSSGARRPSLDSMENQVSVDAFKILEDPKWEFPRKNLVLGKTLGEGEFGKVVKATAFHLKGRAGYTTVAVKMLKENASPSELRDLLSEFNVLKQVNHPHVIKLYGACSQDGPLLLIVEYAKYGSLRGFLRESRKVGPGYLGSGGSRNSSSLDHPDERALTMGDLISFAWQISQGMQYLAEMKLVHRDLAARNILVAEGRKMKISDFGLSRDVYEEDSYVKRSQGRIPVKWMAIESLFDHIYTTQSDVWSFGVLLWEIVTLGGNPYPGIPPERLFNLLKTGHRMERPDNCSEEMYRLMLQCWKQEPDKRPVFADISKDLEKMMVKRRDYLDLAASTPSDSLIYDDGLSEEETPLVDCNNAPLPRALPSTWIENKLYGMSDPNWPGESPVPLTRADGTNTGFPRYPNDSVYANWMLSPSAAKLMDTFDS
Procedure: as §1

FYN = FYN (Homo sapiens, UniProt P06241); assay: Kinase inhibition, FYN; type: biochemical; conditions: 10 μM ATP; read-out: Compound IC50 (M), FYN
Chain of FYN (P06241 whole entry): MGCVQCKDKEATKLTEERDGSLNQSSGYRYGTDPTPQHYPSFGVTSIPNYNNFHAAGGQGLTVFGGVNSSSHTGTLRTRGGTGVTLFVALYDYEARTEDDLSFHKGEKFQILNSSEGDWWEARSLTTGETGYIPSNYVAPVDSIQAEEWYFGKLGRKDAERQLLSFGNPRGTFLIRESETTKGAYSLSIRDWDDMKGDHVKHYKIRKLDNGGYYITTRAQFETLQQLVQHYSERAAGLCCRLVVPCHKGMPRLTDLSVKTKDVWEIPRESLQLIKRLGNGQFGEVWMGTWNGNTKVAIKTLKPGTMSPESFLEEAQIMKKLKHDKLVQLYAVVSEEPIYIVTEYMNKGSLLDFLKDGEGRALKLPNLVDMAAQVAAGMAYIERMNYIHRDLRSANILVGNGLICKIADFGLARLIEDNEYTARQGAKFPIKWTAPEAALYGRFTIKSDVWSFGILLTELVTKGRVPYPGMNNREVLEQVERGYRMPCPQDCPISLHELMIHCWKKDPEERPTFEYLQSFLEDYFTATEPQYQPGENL
Procedure: as §1

CDK6/cyclin D3 = CDK6/cyclin D3 (Homo sapiens, UniProt Q00534); assay: Kinase inhibition, CDK6/cyclin D3; type: biochemical; conditions: 10 μM ATP; read-out: Compound IC50 (M), CDK6/cyclin D3
Procedure: as §1

[5] = test system: GRANTA-519 (human B Cell lymphoma)
Text: as §3, §4, §5, §6, §7, §8

PKG2/PRKG2 = target: T2, PKG2/PRKG2 (Homo sapiens, UniProt Q13237); assay: Kinase inhibition, PKG2/PRKG2; type: biochemical; conditions: 10 μM ATP; read-out: Compound IC50 (M), PKG2/PRKG2
T2 sequence (Q13237 1-762): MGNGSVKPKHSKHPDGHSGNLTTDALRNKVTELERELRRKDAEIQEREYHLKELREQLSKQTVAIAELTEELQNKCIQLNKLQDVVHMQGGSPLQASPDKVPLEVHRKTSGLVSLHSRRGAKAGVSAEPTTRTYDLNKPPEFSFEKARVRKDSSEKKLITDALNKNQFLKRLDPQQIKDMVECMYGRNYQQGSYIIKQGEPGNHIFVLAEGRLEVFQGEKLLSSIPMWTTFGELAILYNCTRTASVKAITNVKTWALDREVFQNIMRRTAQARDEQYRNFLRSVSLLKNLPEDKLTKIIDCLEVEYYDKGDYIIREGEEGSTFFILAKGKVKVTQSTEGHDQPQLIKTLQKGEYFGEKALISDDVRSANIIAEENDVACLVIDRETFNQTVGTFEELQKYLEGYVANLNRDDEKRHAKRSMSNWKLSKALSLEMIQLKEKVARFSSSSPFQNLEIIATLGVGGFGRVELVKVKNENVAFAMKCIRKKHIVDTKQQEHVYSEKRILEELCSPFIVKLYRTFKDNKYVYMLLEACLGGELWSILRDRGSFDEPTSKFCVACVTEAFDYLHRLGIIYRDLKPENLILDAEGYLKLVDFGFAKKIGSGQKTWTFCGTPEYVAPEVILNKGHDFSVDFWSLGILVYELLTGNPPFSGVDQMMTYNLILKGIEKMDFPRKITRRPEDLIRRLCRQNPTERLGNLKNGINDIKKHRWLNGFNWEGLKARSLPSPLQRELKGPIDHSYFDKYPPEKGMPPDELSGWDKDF
Procedure: as §1

FLT3 = target: T3, FLT3 (Homo sapiens, UniProt P36888); assay: Kinase inhibition, FLT3; type: biochemical; conditions: 10 μM ATP; values <1 nM estimated from best curve fitting; read-out: Compound IC50 (M), FLT3
T3 sequence (P36888 27-993): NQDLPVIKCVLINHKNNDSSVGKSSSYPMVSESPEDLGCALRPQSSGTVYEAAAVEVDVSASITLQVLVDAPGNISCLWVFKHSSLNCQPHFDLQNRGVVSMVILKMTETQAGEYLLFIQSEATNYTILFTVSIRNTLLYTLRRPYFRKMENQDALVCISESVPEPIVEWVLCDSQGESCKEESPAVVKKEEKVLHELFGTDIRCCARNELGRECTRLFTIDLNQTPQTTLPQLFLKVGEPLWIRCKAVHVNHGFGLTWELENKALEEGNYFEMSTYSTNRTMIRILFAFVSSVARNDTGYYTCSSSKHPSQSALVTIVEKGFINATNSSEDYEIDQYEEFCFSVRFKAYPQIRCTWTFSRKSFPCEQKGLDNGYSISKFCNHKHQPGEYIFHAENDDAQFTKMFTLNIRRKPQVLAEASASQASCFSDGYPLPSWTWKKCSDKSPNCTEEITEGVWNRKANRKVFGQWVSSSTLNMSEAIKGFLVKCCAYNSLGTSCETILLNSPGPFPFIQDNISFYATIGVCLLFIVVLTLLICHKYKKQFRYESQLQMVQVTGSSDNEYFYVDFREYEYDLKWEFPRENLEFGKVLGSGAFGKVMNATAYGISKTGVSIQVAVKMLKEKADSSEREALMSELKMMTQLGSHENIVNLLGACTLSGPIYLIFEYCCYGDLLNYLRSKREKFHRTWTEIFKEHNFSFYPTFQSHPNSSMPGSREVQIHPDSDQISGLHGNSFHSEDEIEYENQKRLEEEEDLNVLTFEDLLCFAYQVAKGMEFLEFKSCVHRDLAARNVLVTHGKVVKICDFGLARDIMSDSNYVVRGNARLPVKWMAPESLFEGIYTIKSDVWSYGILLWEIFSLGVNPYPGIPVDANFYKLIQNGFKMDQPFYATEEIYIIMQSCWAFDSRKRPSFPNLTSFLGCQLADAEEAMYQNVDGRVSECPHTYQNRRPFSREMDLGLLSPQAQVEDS
Procedure: as §1

ABL1 = ABL1 (Homo sapiens, UniProt P00519); assay: Kinase inhibition, ABL1; type: biochemical; conditions: 10 μM ATP; read-out: Compound IC50 (M), ABL1
Chain of ABL1 (P00519 whole entry): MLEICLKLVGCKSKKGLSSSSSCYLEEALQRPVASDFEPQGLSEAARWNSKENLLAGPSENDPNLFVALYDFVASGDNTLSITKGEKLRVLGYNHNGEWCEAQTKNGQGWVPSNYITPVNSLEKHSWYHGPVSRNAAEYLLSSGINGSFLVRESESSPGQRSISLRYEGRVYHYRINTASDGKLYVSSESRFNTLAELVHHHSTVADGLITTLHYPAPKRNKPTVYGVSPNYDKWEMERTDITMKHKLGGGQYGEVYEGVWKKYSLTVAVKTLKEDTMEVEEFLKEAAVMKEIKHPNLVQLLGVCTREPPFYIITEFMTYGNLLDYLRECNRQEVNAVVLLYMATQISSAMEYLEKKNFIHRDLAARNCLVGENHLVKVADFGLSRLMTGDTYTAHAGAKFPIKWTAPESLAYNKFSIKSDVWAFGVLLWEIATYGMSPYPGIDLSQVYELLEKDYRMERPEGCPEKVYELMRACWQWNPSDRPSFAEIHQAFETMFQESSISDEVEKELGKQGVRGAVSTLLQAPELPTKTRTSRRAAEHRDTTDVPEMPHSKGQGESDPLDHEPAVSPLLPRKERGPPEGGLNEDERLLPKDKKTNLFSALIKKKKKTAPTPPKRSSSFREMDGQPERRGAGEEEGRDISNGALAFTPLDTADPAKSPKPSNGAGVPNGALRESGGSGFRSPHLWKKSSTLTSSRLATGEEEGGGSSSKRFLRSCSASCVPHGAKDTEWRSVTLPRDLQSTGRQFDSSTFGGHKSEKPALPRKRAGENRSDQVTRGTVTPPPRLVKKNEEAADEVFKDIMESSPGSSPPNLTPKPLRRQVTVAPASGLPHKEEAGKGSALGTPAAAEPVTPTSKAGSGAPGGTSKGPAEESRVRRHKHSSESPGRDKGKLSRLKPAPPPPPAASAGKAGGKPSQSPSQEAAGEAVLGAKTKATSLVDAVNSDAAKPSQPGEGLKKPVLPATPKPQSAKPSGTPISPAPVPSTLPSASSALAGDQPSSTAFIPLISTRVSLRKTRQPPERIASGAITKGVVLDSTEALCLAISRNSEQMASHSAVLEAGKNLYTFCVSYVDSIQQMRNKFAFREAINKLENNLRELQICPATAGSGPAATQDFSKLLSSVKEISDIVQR
Procedure: as §1

FGFR1 = FGFR1 (Homo sapiens, UniProt P11362); assay: Kinase inhibition, FGFR1; type: biochemical; conditions: 10 μM ATP; read-out: Compound IC50 (M), FGFR1
Chain of FGFR1 (P11362 22-822): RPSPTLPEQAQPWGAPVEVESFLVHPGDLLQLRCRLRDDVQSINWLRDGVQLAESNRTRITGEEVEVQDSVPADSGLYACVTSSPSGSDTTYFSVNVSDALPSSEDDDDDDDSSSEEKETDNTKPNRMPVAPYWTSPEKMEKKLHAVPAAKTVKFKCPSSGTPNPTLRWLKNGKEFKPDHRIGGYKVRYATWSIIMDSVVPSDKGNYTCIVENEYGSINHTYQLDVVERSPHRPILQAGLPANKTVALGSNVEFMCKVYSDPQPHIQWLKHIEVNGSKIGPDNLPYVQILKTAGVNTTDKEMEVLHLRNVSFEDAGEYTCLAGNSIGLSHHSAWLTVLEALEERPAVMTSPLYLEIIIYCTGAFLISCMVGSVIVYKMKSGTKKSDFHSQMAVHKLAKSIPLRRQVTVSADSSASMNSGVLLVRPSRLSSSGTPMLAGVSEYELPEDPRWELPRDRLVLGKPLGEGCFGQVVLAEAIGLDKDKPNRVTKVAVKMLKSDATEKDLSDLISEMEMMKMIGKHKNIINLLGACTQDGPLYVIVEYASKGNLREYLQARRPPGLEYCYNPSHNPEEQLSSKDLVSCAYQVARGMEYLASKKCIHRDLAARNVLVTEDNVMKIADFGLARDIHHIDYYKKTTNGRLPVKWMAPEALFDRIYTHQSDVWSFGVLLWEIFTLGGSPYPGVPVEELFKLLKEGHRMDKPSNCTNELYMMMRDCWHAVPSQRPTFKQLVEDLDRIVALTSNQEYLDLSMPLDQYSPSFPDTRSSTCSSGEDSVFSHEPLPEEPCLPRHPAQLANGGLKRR
Procedure: as §1

CDK6/cyclin D1 = CDK6/cyclin D1 (Homo sapiens, UniProt Q00534); assay: Kinase inhibition, CDK6/cyclin D1; type: biochemical; conditions: 10 μM ATP; values <1 nM estimated from best curve fitting; read-out: Compound IC50 (M), CDK6/cyclin D1
Procedure: as §1

With `CC(=O)c1c(C)c2cnc(Nc3ccc(N4CCNCC4)cn3)nc2n(C2CCCC2)c1=O` [Palbociclib, palbociclib, reference compound] the IC50 (ARK5/NUAK1) was 1.91e-06 M and the IC50 (FLT4/VEGFR3) was 1.72e-05 M.

`N.N.[Cl][Pt][Cl]` [Cisplatin, reference compound] was tested, and the IC50 ([1]; K-562, 72 h) was 3760 nM, the “% inhibition at top conc.” value ([1]; K-562, 72 h, top working concentration 100 μM) was 98.74% and the “% inhibition at top conc.” value ([2]; GRANTA-519, 72 h, top working concentration 100 μM) was 77.25%. For the same compound, the IC50 ([2]; GRANTA-519, 72 h, CellTiter-Glo) was 1680 nM, the “% inhibition at top conc.” value ([3]; HeLa, 72 h, top working concentration 100 μM) was 99.18% and the IC50 ([4]; DU 145, 72 h) was 960 nM. For the same compound, the “% inhibition at top conc.” value ([4]; DU 145, 72 h, top working concentration 100 μM) was 95.44%.

With `N#Cc1cc2cnc(Nc3ccc(N4CCNCC4)cc3)nc2n(C2CCCC2)c1=O` [ON 1232580, 8-Cyclopentyl-7-oxo-2-(4-piperazin-1-yl-phenylamino)-7,8-dihydro-pyrido[2,3-d]pyrimidine-6-carbonitrile] the IC50 (PDGFRb) was 6.12e-09 M, the IC50 (CDK4/cyclin D1) was < 1e-09 M and the IC50 ([1]; Homo sapiens, K562, K-562, 72 h) was 1190 nM. For the same compound, the inhibition at 100 µM ([1]; Homo sapiens, K562, K-562, 72 h, top working concentration 100 μM, read-out: % inhibition at top conc.) was 100%, the “Cytotoxicity, result in words” value ([1]; K-562 cells) was “potent inhibitor” and the IC50 (CDK4/cyclin D3) was 2.77e-09 M. It also gave an IC50 (CDK9/cyclin K) of 8.06e-09 M, an IC50 (RET) of 8.13e-09 M and an IC50 (FYN) of 3.29e-08 M. The IC50 (ARK5/NUAK1) was 2.28e-09 M, the IC50 (CDK6/cyclin D3) was 2.97e-09 M and the IC50 (FLT4/VEGFR3) was 6.97e-09 M. For the same compound, the “Cytotoxicity, result in words” value [5] was “potent killer”, the IC50 (PKG2/PRKG2) was > 0.0001 M and the IC50 (FLT3) was 4.25e-09 M. It also gave an IC50 (ABL1) of 2.01e-08 M, an inhibition at 100 µM ([2]; Homo sapiens, Granta-519, 72 h, read-out: % inhibition at top conc.) of 100% and an IC50 ([2]; Homo sapiens, Granta-519, 72 h) of 400 nM. The IC50 (FGFR1) was 3.09e-08 M, the IC50 (CDK6/cyclin D1) was < 1e-09 M and the “Cytotoxicity, result in words” value ([3]; HeLa cells) was “potent inhibitor”. The IC50 ([3]; Homo sapiens, HeLa, 72 h, CellTiter-Glo, read-out: Absolute IC50) was 1500 nM, the inhibition at 100 µM ([3]; Homo sapiens, HeLa, 72 h, top working concentration 100 μM, read-out: % inhibition at top conc.) was 100% and the “Cytotoxicity, result in words” value ([4]; DU 145 cells) was “potent inhibitor”. The IC50 ([4]; Homo sapiens, DU 145, 72 h) was 930 nM and the inhibition at 100 µM ([4]; Homo sapiens, DU 145, 72 h, top working concentration 100 μM, read-out: % inhibition at top conc.) was 99.9%.
